{
  "source": "the supplement of paper PMC10307832",
  "assay_in_all_cases": "relative viability (nuclei count vs DMSO), 5 days (fraction); higher = more cells survive",
  "key": {"[1]": {"compound": "C1CNCCC1C2=CC(=NN2)C3=CC=NC=C3 + C[C@@H](Oc1cc(-c2cnn(C3CCNCC3)c2)cnc1N)c1c(Cl)ccc(F)c1Cl [Crizotinib] (partner 1 µM)", "method_in_brief": "(§1)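 Relative viability equals treated-well nuclei counts divided by vehicle-well nuclei counts. Counts came from 4× images of lung cancer cell lines grown in 1536-well plates for 5 days after pin-tool dosing on the day after seeding. Dosing used one drug alone or a fixed anchor-drug dose plus five library-drug doses (not always all listed) in √10 steps, and values are medians of duplicate plates.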"}, "[2]": {"compound": "C1CNCCC1C2=CC(=NN2)C3=CC=NC=C3 + COc1cccc2cc(-c3nc([C@H]4CC[C@H](C(=O)O)CC4)n4ncnc(N)c34)[nH]c12 [OSI-027] (partner 0.5 µM)", "method_in_brief": "as §1"}, "[3]": {"compound": "O[C@H]1CC[C@H](Nc2ncc3nc(Nc4c(F)cc(F)cc4F)n([C@H]4CCOC4)c3n2)CC1 [Tanzisertib] + CC(=O)c1c(C)c2cnc(Nc3ccc(N4CCNCC4)cn3)nc2n(C2CCCC2)c1=O [Palbociclib] (partner 0.5 µM)", "method_in_brief": "as §1"}, "[4]": {"compound": "C1CNCCC1C2=CC(=NN2)C3=CC=NC=C3 + Nc1ncn([C@H]2C[C@H](O)[C@@H](CO)O2)c(=O)n1 [Decitabine] (partner 2 µM)", "method_in_brief": "as §1"}},
  "data": [
    {"cell line": "UMC-11", "values": [
      {"measurement": "relative viability", "setting": "[1]; first compound 0.08 µM", "value": 0.69},
      {"measurement": "relative viability", "setting": "[1]; first compound 0.8 µM", "value": 0.577},
      {"measurement": "relative viability", "setting": "[1]; first compound 2.53 µM", "value": 0.713},
      {"measurement": "relative viability", "setting": "[1]; first compound 8 µM", "value": 0.63},
      {"measurement": "relative viability", "setting": "[2]; first compound 0.08 µM", "value": 0.452},
      {"measurement": "relative viability", "setting": "[2]; first compound 0.8 µM", "value": 0.537},
      {"measurement": "relative viability", "setting": "[2]; first compound 2.53 µM", "value": 0.459},
      {"measurement": "relative viability", "setting": "[2]; first compound 8 µM", "value": 0.553},
      {"measurement": "relative viability", "setting": "[3]; first compound 0.08 µM", "value": 0.346},
      {"measurement": "relative viability", "setting": "[3]; first compound 0.253 µM", "value": 0.285},
      {"measurement": "relative viability", "setting": "[3]; first compound 0.8 µM", "value": 0.319},
      {"measurement": "relative viability", "setting": "[3]; first compound 2.53 µM", "value": 0.325},
      {"measurement": "relative viability", "setting": "[3]; first compound 8 µM", "value": 0.355},
      {"measurement": "relative viability", "setting": "[4]; first compound 0.08 µM", "value": 0.4},
      {"measurement": "relative viability", "setting": "[4]; first compound 0.8 µM", "value": 0.629},
      {"measurement": "relative viability", "setting": "[4]; first compound 2.53 µM", "value": 0.697},
      {"measurement": "relative viability", "setting": "[4]; first compound 8 µM", "value": 0.808}
    ]}
  ]
}
